Data from publication PMC9304282, “Relating Conformational Equilibria to Conformer‐Specific Lipophilicities: New Opportunities in Drug Discovery” (Angewandte Chemie (International Ed. in English), 2021).
Several values for one entry are separate records, joined by “and”; a condition that tells them apart may be missing. Identical values can stand only once. Like-named read-outs stand apart in the source and are kept apart here.

Legend:
[1] = logP and conformer-specific logp determination by 19F NMR (octanol/water partitioning); format: physicochemical; conditions: for logP: n-octanol/water, octanol/water, 19F NMR
Description: The principle of the strategy for logp optimization, and of the direct logp measurement, is illustrated for amide rotamers (Figure 2) in slow exchange in solution, where each rotamer signal can be integrated directly. This constitutes a system with four coupled equilibria of conformers between (refers to p) and within (refers to K) the two phases (Figure 2A). Our lipophilicity measurement procedure[18] involves acquiring a ^19F NMR spectrum of each phase after phase separation (Figure 2B), and measuring integration relative to an added internal reference. Three peaks are observed: one corresponding to the reference, and two corresponding to each amide rotamer. A ρ‐value for a given rotamer in a given phase is defined as the integration ratio of the rotamer signal and that of the reference (Eq. 5). Through taking the ratio of the ρ‐values of a rotamer, Equation 6 can be obtained,[18] showing that its logp equals the known logP of the reference plus the log of the ratio of its ρ‐values. The overall logP of the amide is then determined by using the integration sum of its rotamer signals using the same equation.[18]
Linclau et al – supporting information 8
3 The logP determination by 19F NMR
Lipophilicities were determined using a previously published protocol:[1] to a 10 mL pear-shaped flask was added the compound (1.0 - 10 mg) for logP determination, the reference compound (1.0 - 10 mg, with known logP value, e.g., 2,2,2-trifluoroethanol, logP: +0.36), water (2 mL) and n-octanol (2 mL). The resulting biphasic mixture was stirred (at 600 rpm) for 2 h at 25 °C, and then left without stirring for 16 h at 25 °C to allow phase separation. An aliquot of 0.5 mL was taken from each phase using 1 mL syringes with long needles and added to two separate NMR tubes. A deuterated NMR solvent (0.1 mL, e.g., acetone-d6), or a capillary tube containing deuterated NMR solvent, was added to the NMR tubes to enable signal locking.
Because of the volatility of the used compounds, the NMR tubes were sealed using a blowtorch. For NMR samples with directly added deuterated solvent, the tubes were inverted 20 times for mixing. For 19F{1H} NMR experiments, NMR parameters were set as follows: D1 30 sec for the octanol sample, D1 60 sec for the water sample; and O1P centered between two diagnostic fluorine peaks. If needed, an increased number of transients (NS) and/or narrower spectral window (SW) for a good S/N ratio (typically >300) was applied.
After NMR data processing, integration ratios ρoct and ρaq (ρoct is defined as the integration ratio between the compound and the reference compound in the octanol sample; likewise for ρaq) were obtained, and used in the equation (logPX = logPref + log(ρoct/ρaq)) to obtain the logP value of the compound. The logP measurement of each compound was run in triplicate. LogP values of non-fluorinated compounds were taken from the literature.
The standard deviation (σ) was calculated using the formula: […]
Where xi are the individual estimated logP values and x̅ is the mean average.
(§1) Linclau et al – supporting information 21
(§2) 4.3 Detailed experimental data for the logP determinations (roct and rwat values for each
(§3) 4.3.1 Standard NMR settings
(§4) Standard NMR parameter setting: SW, 300 ppm; centered O1P; NS 64; D1 30 sec (octanol sample), D1 60 sec (water sample). Any change from standard setting was described for each compound. Unless specified otherwise 2,2,2-trifluoroethanol (logP: +0.36) was used as the reference compound. […]
(§5) Reference - 1-Fluoropropan-2-ol
(§6) Compound Experimental ρ /ρ LogP Average Error
(§7) (octanol/water) oct wat LogP
(§8) Ratio of E:Z-rotamers, and K value:
(§9) Octanol phase Water phase
(§10) Conformation ρ /ρ LogP Average Error

[2] = amide rotamer ratio (K value) in octanol and water phase by 19F NMR integration; format: physicochemical; conditions: experimental
Description: In the closed equilibrium system shown in Figure 2A, the ratio of the p‐values equates to the ratio of the K‐values ((Eq. 7), Figure 2C), so that the difference in logp values equals the log of the K‐value ratio (Eq. 8). In other words: the lipophilicity difference between two conformers is directly related to the change between their equilibrium concentration ratios in water and octanol. The K‐values can be obtained through integration measurement (Eq. 8).
The ρ and K determinations require assignment of each fluorine signal in each phase to a particular rotamer, as it was observed that the relative position of cis‐and trans‐amide rotamer resonances in the ^19F NMR spectrum in octanol was not always the same as that in water. Conformer signal assignment in the water phase is easily accomplished by a control experiment using (octanol‐saturated) D2O by standard NOESY analysis combined with peak integration (see Supporting Information). As perdeuterated octanol is very expensive, this was experimentally non‐trivial for cases when the huge octanol solvent R‐CH 2OH signal and its ^13C satellites obscure proton resonances that are required for rotamer assignment. Solvent suppression techniques are impractical, and skew the integration ratio. We therefore introduced 1,1‐dideuteriooctanol (C7H15CD2OH), which considerably facilitated rotamer assignment. It is prepared on large scale by a modified Bouveault–Blanc reduction[20] of cheap methyl octanoate with EtOD as deuterium source (see Supporting Information).
as §1, §2, §3, §4, §5, §6, §7, §8, §9, §10

[3] = difference between trans and cis rotamer logp
[4] = unrounded mean, read-out: logP, mean as printed in column Error (±σ)
[5] = unrounded mean, read-out: logp cis rotamer, mean as printed in column Error (±σ)
[6] = unrounded mean, read-out: logp trans rotamer, mean as printed in column Error (±σ)
[7] = 25 °C, sum of rotamer signals, read-out: logP (macroscopic lipophilicity, average)
[8] = difference between E and Z rotamer logp
[9] = unrounded mean, read-out: logp E rotamer, mean as printed in column Error (±σ)
[10] = unrounded mean, read-out: logp Z rotamer, mean as printed in column Error (±σ)

| Δlogp [1, 3] | logP [1, 4] | logP [1, 5] | logP [1, 6] | logP [1, 7] | Kt/c oct (ratio of trans/cis rotamers) ([2]; octanol phase) | Ratio c/t ([2]; octanol phase) | Kt/c wat (ratio of trans/cis rotamers) ([2]; water phase) | Ratio c/t ([2]; water phase) | logP ([1]; cis amide rotamer, read-out: logp (cis)-rotamer (conformer-specific, average)) | Δlogp [1, 8] | logP [1, 9] | logP [1, 10] | KE/Z oct (ratio of E:Z rotamers) ([2]; octanol phase) | Ratio Z/E (K value in parentheses) ([2]; octanol phase) | KE/Z wat (ratio of E:Z rotamers) ([2]; water phase) | Ratio Z/E (K value in parentheses) ([2]; water phase) | Compound |
| --- | --- | --- | --- | --- | --- | --- | --- | --- | --- | --- | --- | --- | --- | --- | --- | --- | --- |
| 0.09 | -0.605 | -0.529 | -0.618 | -0.6 | 5.29 | 0.19 | 6.49 | 0.15 | – | – | – | – | – | – | – | – | COC(=O)[C@@H]1C[C@@H](F)CN1C(C)=O [6a, N-acetyl-4R-FPro-OMe] |
| -0.27 | -1.16 | -1.39 | -1.12 | -1.16 | 8.29 | 0.12 | 4.44 | 0.23 | -1.39 | – | – | – | – | – | – | – | CC(=O)N1C[C@H](F)C[C@H]1C(=O)N(C)C [6b, N-acetyl-(2S,4R)-4-fluoroproline dimethyl amide] |
| – | -0.196 | -0.035 | -0.256 | -0.2 | 2.09 | – | 3.48 | – | – | – | – | – | – | – | – | – | COC(=O)[C@@H]1CC(F)(F)CN1C(C)=O [7a, N-Acetyl-4,4-F2Pro-OMe] |
| -0.11 | -0.888 | -0.978 | -0.866 | -0.89 | 4.76 | 0.21 | 3.68 | 0.27 | – | – | – | – | – | – | – | – | CC(=O)N1CC(F)(F)C[C@H]1C(=O)N(C)C [7b, N-Acetyl-4,4-F2Pro-NMe2] |
| – | -0.568 | – | – | -0.57 | – | – | – | – | – | 0.06 | -0.602 | -0.538 | 0.75 | 1.33 | 0.86 | 1.16 | CC(=O)N1CCC(F)C1 (stereo not shown) [compound 2, N-Acetyl-3-fluoropyrrolidine] |
| – | -0.117 | – | – | -0.12 | – | – | – | – | – | 0.06 | -0.153 | -0.089 | 0.72 | 1.4 and 1.39 | 0.84 | 1.2 and 1.19 | CC(=O)N1CCC(F)(F)C1 [compound 3, N-Acetyl-3,3-difluoropyrrolidine] |
| – | -0.1 | – | – | -0.1 | – | – | – | – | – | -0.19 | -0.015 | -0.198 | 1.43 | 0.70 | 0.95 | 1.05 | CC(=O)N1CCCC(F)C1 (stereo not shown) [compound 4, N-Acetyl-3-fluoropiperidine] |
| – | 0.272 | – | – | 0.27 | – | – | – | – | – | -0.21 | 0.378 | 0.174 | 1.17 | 0.85 | 0.73 | 1.37 | CC(=O)N1CCCC(F)(F)C1 [compound 5, N-Acetyl-3,3-difluoropiperidine] |
